“Also recorded” adds a separate entry of the source.

Data set [1] relates to 3T3-L1 adipocytes. Briefly: cAMP assay (ELISA kit) in 3T3-L1 adipocytes. The conditions noted are these: 50 μM azelaic acid, 18 hours. In kind it is cell-based, mouse. The protocol:
Therefore, changes in concentrations of cAMP, IP-one (metabolite of IP3), and calcium, which are second messengers by azelaic acid corresponding to the Olfr544 ligand, in 3T3-L1 adipocytes were measured. Since IP3 has low stability to thereby be easily decomposed to IP-one, an amount of intracellular IP-One (metabolite of IP3) was quantified instead of IP3.
cAMP assay uses the principle to estimate a production amount of cAMP corresponding to a second messenger of a GPCR receptor activated by a ligand using a cAMP standard calibration curve. A 96-well plate included in a cAMP assay ELISA kit (Enzo Life science, New York, U.S.) was coated with a G×R IgG antibody, and after cAMP of a blue solution for obtaining the standard calibration curve was bound to alkaline phosphatase, the color of the blue solution was changed to yellow by a rabbit antibody. When alkaline phosphatase was activated by adding a pNpp substrate to a well bound to cAMP, a color change occurred, such that the concentration of cAMP may be measured at a wavelength of 405 nm using colorimetric analysis. In the present experiment, 1×10^4 3T3-L1 adipocytes were seeded in each well of the 96-well plate and differentiated, and then treated with 50 μM azelaic acid and 1 μM Foskolin corresponding to a positive control for 18 hours. Then, the concentration of cAMP was measured by the method described above.
(Cyclic AMP is a second messenger, typically raised through Gs and lowered through Gi signalling.)

For data set [2], the system named is 3T3-L1 adipocytes. Briefly: MTT assay, cytotoxicity of azelaic acid. The data set is classed as cell-based, mouse. Particulars: azelaic acid up to 500 μM, 24 hours. As to the method:
In order to evaluate cytotoxicity of azelaic acid, MTT assay was performed.
The MTT assay is a test method using an ability of mitochondria reducing MTT tetrazolium, a yellow water-soluble substrate, to a blue purple water-insoluble MTT formazane […]. An MTT reagent was prepared by diluting C18H16BrN5S (Thiazoly Blue Tetrazolium Bromide) in phosphate buffered saline (PBS) at a concentration of 2 to 5 mg/ml.
First, after the 3T3-L1 adipocytes (4×10^5 cells/ml) were seeded in a 96-well plate and cultured at 37° C. under 5% CO2 conditions for 24 hours, the cultured 3T3-L1 adipocytes were treated with azelaic acid in a concentration range of 0 to 500 μM and cultured for 24 hours. After 100 μL of the MTT reagent was added to each test sample at a concentration of 4 mg/mL and cultured at 37° C. under 5% CO2 conditions for 4 hours, 100 μL of dimethyl sulfoxide (DMSO) was added thereto, and absorbance was measured at 540 nm. An absorbance value is to quantify an apoptotic effect due to toxicity using the principle that absorbance is in proportion to the number of living cells.

Data set [3] relates to 3T3-L1 adipocytes. The data set is described as follows: Intracellular triglyceride concentration (TG assay kit) in 3T3-L1 adipocytes. The data set is classed as cell-based, mouse. The protocol: In order to confirm whether or not azelaic acid induces triglyceride hydrolysis in adipocytes by activating a cAMP-PKA-HSL signaling pathway, the adipocytes were directly treated with azelaic acid, and concentrations of intracellular lipids were measured. […] Then, a concentration of triglycerides was measured using a TG assay kit (BioVision, California, U.S.) and a concentration of cholesterol was measured using an Amplex Red cholesterol assay kit (Invitrogen, California, U.S.).

Data set [4] has as its system 3T3-L1 adipocytes. Briefly: Intracellular calcium assay (Fluo-4 Direct) in 3T3-L1 adipocytes. The data set is classed as cell-based, mouse. The protocol:
Therefore, changes in concentrations of cAMP, IP-one (metabolite of IP3), and calcium, which are second messengers by azelaic acid corresponding to the Olfr544 ligand, in 3T3-L1 adipocytes were measured. Since IP3 has low stability to thereby be easily decomposed to IP-one, an amount of intracellular IP-One (metabolite of IP3) was quantified instead of IP3. The concentration of intracellular calcium was measured using a Fluo-4 Direct™ Calcium Assay Kit (Invitrogen, California, U.S.) containing a fluorescent dye for labeling calcium ions. The cultured 3T3-L1 adipocytes were obtained and subjected to centrifugation, and then only pellets were diluted in a Fluo-4 Direct™ calcium assay buffer solution contained in the kit at a concentration of 2.5×10^6 cells/mL. After the resultant was seeded in a 96-well plate and cultured at 37° C. under 5% CO2 conditions for 60 minutes, 50 μL of a 2×Fluo-4 Direct™ calcium reagent loading solution was seeded in the 96-well plate and cultured at 37° C. under 5% CO2 conditions for 30 minutes. Then, fluorescence was measured at excitation and emission wavelengths of 494 nm and 516 nm.
For orientation: Calcium flux is commonly read through the fluorescence of an indicator in the cells.

Data set [5] relates to C57BL/6 mice. The data set is described as follows: Subcutaneous injection in high-fat diet fed male C57BL/6 mice. In kind it is in vivo, mouse. Particulars: high-fat diet male C57BL/6 mice, 50 mg/kg subcutaneously, 3.5 weeks. As to the method: After 4 weeks of high-fat diet feeding in male C57BL/6 mice (7-8 per group), 50 mg/kg of azelaic acid was administered subcutaneously for 3.5 weeks, and Saxenda, which is used as an anti-obesity drug, was administered as a positive control.

The target in data set [6] is T1, OR2K2 (Homo sapiens, UniProt Q8NGT1).
T1 construct: endogenous in cells; host or cells: HepG2
T1 sequence (Q8NGT1 1-316): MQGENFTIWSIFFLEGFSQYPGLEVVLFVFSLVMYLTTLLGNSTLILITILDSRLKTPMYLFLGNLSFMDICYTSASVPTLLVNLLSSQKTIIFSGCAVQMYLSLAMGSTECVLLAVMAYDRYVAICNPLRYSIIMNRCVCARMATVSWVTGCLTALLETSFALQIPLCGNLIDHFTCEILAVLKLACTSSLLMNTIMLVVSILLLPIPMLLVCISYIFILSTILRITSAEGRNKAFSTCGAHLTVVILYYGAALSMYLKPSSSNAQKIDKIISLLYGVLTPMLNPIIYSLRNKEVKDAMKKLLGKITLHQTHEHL
Briefly: siRNA knock-down of OR2K2 in hAMSC cells, lipolysis. The data set is classed as cell-based. The conditions noted are these: treated with azelaic acid. An excerpt:
The gene expression of OR1E1, OR1K1, OR2K2, OR2S2, OR13C5, and OR51E2, corresponding to the top 6 receptors among 10 human olfactory receptors selected to be expressed in both adipose tissue and liver tissue while interacting with azelaic acid, was knocked down with siRNA in human-derived liver cell and adipocyte lines, namely HepG2 cells and hAMSC cells, respectively. Here, siRNAs that were used were OR1E2 siRNA (sc-93932), OR1K2 (sc-92810), OR2K2 (sc-92852), OR2S2 (sc-92505), OR13C5 (sc-92899), and OR51E2 (sc-76265), purchased from Santa Cruz Biotechnology Inc. (Dallas, Tx USA).
After knock-down treatment, the cell lines were treated with azelaic acid, and triglyceride hydrolysis and fatty acid oxidation-related gene expression in HepG2 cells as a human-derived liver cell line and hAMSC cells as a human-derived adipocyte line were measured.

Consider `O=C(O)CCCCCCCC(=O)O` [azelaic acid, nonanedioic acid], for which the “concentration of intracellular cAMP” value in data set [1] was “significantly increased”. Moreover, the “cytotoxicity (MTT assay)” value in data set [2] is recorded as “cytotoxicity was not observed; also recorded: toxicity was not exhibited”. Further, in data set [3] (3T3-L1 adipocytes, 50 μM azelaic acid, 2 hours), the “concentration of intracellular triglycerides decreased as compared to a control” value was found to be 61.5%. In addition, the “concentration of triglycerides in the 3T3-L1 adipocytes” value in data set [3] (azelaic acid 25 or 50 μM) is “significantly and concentration-dependently decreased”. For the same compound, the “concentration of intracellular calcium” value in data set [4] was “did not affect”. Also, in data set [5], the body weight result was “reduced body weight” and the subcutaneous fat entry is on record as “reducing subcutaneous fat”. Also, in data set [6], the “lipolytic effect, knock-down group compared to control group” value is listed as “statistically significantly decreased”.

The values are drawn from patent US20220249415A1, “COMPOSITION OF AZELAIC ACID HAVING ADIPOSE TRIGLYCERIDE HYDROLYSIS EFFECT” (Korea University Research and Business Foundation, priority 2018, published 2022).
